Measured values as given in patent US12653865B2, “Dual-agonist compound for both GLP-1 and GIP receptors and application thereof” (Jiangsu Hengrui Pharmaceuticals Co., Ltd., priority 2020, dated 2026).
*1 amine or outer side, *2 acyl side, *3 side chain or, on linkers, in order; H or OH if unused. Where a SMILES comes first, the peptide text is derived from it. Side-chain parts run from the residue outwards. [ ]: non-standard residue; d: D form. The star is where a group is joined. C20 diacid = O=C(O)CCCCCCCCCCCCCCCCCCC(=O)*; γGlu = O=C(O)[C@H](CCC(=O)[*:2])N[*:1]; AEEA = NCCOCCOCC(=O)O; Aib = CC(C)(N)C(=O)O

Key:
[1] = Stability in human plasma (LC-MS); type: in vitro ADME; conditions: 0 min (standard 100%)
Protocol: 5 μL of each of samples at concentrations of 20 ng/mL, 50 ng/mL, 100 ng/mL, 200 ng/mL, 500 ng/mL, 1000 ng/mL, 2000 ng/mL, 5000 ng/mL and 10000 ng/mL was added to 45 μL of human plasma. The content of the compounds in the samples was determined by the LC-MS method and a standard curve was formed. 5 μL of a 1 mg/mL polypeptide solution was added to 45 μL of human plasma. […] With the content at 0 min as the standard (100%), the relative content of the retained compounds in the samples at other time points was calculated.

normal mice = test: Blood glucose in normal mice after single subcutaneous injection and intraperitoneal glucose; type: in vivo, C57BL/6 mice; conditions: 10 nmol/kg sc; for Blood glucose: glucose ip 18 h later
Protocol: 18 h later, a glucose solution at a concentration of 0.2 g/mL was intraperitoneally injected. Blood glucose values were measured by collecting blood from the tail of mice at time points of 0 min, 15 min, 30 min, 60 min, and 120 min according to the experimental design. The specific procedures were as follows: the mouse was physically immobilized with the tail exposed, and a little was cut off the tail, then the tail was squeezed to bleed, and blood glucose was determined using a Roche active glucometer after the 1 st drop of blood was discarded. The area under the blood glucose curve (AUC) was calculated from the results of all points.

diet-induced obese mice = test: Body weight and fat mass in diet-induced obese mice; type: in vivo, C57BL/6 mice; conditions: induced obese mice, 10 nmol/kg sc
Protocol: High-fat food-induced obese male C57BL/6 mice (weighing 35-55 g, aged 10-12 weeks, purchased from Shanghai Jiesijie Laboratory Animal Co., Ltd.) were tested. […] According to the experimental design, the body weight of each mouse was measured and recorded on day 0, day 3, day 6 and so on to day 27, the average body weight of each group of mice was calculated, and weight change curves were plotted by taking the body weight on the first day as the standard. At the end, the fat and other visceral organs of each part of the mice were taken out and weighed, and the viscera/brain ratio for fat in each part of each mouse was calculated. The effect of the drug on the fat was determined by comparing the change in the organ/brain ratio for fat of different parts of each group of mice.

With `CC[C@H](C)[C@H](NC(=O)[C@H](CCCCN)NC(=O)[C@H](CC(=O)O)NC(=O)[C@H](CCCCNC(=O)COCCOCCNC(=O)COCCOCCNC(=O)CC[C@H](NC(=O)CCCCCCCCCCCCCCCCCCC(=O)O)C(=O)O)NC(=O)[C@H](Cc1ccc(O)cc1)NC(=O)[C@@H](NC(=O)[C@H](CO)NC(=O)[C@H](Cc1ccc(O)cc1)NC(=O)[C@H](CC(=O)O)NC(=O)[C@H](CO)NC(=O)[C@@H](NC(=O)[C@H](Cc1ccccc1)NC(=O)[C@@H](NC(=O)CNC(=O)[C@H](CCC(=O)O)NC(=O)C(C)(C)NC(=O)[C@@H](N)Cc1ccc(O)cc1)[C@@H](C)O)[C@@H](C)O)[C@@H](C)CC)C(=O)N[C@@H](C)C(=O)N[C@@H](C)C(=O)N[C@@H](CCC(N)=O)C(=O)N[C@@H](CCC(=O)O)C(=O)N[C@@H](Cc1ccccc1)C(=O)N[C@H](C(=O)N[C@@H](CC(N)=O)C(=O)N[C@@H](Cc1c[nH]c2ccccc12)C(=O)N[C@@H](CC(C)C)C(=O)N[C@@H](CC(C)C)C(=O)N[C@@H](C)C(=O)NCC(=O)NCC(=O)N1CCC[C@H]1C(=O)N[C@@H](CO)C(=O)N[C@@H](CO)C(=O)NCC(=O)N[C@@H](C)C(=O)N1CCC[C@H]1C(=O)N1CCC[C@H]1C(=O)N1CCC[C@H]1C(=O)N[C@@H](CO)C(N)=O)C(C)C` [Compound 7#] (H-Y[Aib]EGTFTSDYSIYK([AEEA-AEEA-γGlu-C20 diacid])DKIAAQEFVNWLLAGGPSSGAPPPS-NH2) the “relative content of compounds retained in plasma” value [1] was 100.00%, the “reduction of area under the blood glucose curve compared to placebo” value (normal mice) was “more than 60%” and the Blood glucose (normal mice; 0 min) was 4.4 ± 0.8 mmol/L. The Blood glucose (normal mice; 15 min) was 6.7 ± 0.8 mmol/L, the Blood glucose (normal mice; 30 min) was 6.2 ± 1.3 mmol/L and the Blood glucose (normal mice; 60 min) was 5.7 ± 1.2 mmol/L. The Blood glucose (normal mice; 120 min) was 3.8 ± 1.1 mmol/L, the “Changes in body weight” value (diet-induced obese mice; Day 1) was 0% and the “Changes in body weight” value (diet-induced obese mice; Day 4) was −11.0%. For the same molecule, the “Changes in body weight” value (diet-induced obese mice; Day 7) was −17.6%, the “Changes in body weight” value (diet-induced obese mice; Day 10) was −22.6% and the “Changes in body weight” value (diet-induced obese mice; Day 13) was −22.3%. For the same molecule, the “Changes in body weight” value (diet-induced obese mice; Day 16) was −22.7%, the “Changes in body weight” value (diet-induced obese mice; Day 19) was −25.9% and the “Changes in body weight” value (diet-induced obese mice; Day 22) was −23.9%. For the same molecule, the “Changes in body weight” value (diet-induced obese mice; Day 25) was −23.9% and the “Changes in body weight” value (diet-induced obese mice; Day 28) was −25.5%.
